Laboratory results published in patent US20020137929A1, “1 - (3-heterocyclylphenyl) isothiourea, -isourea, -guanidine and -amidine herbicidal agents” (Intellectual Property Department, BASF Aktiengesellschaft, priority 1998, published 2002).

Columns and labels:
[1] = system: ABUTH (Velvetleaf); experiment: Postemergence herbicidal evaluation; type: in vivo, Abutilon theophrasti
Procedure: (§1) In the tests, seedling plants are grown in jiffy flats for about two weeks. The test compounds are dispersed in 50/50 acetone/water mixtures containing 0.5% TWEEN®20, a polyoxyethylene sorbitan monolaurate surfactant of Atlas Chemical Industries, in sufficient quantities to provide the equivalent of about 0.0156 kg to 0.500 kg per hectare of active compound when applied to the plants through a spray nozzle operating at 40 psi for a predetermined time. After spraying, the plants are placed on greenhouse benches and are cared for in accordance with conventional greenhouse procedures. From four to five weeks after treatment, the seedling plants are examined and rated according to the rating system set forth below. Where more than one test is involved for a given compound, the data are averaged.
(§2) Plant species employed in these evaluations are reported by header abbreviation, common name and scientific name.
(§3) Results of herbicide evaluation are expressed on a rating scale (0-9). The scale is based upon a visual observation of plant stand, vigor, malformation, size, chlorosis and overall plant appearance as compared with a control.

[2] = system: AMBEL (Ragweed, Common); experiment: Postemergence herbicidal evaluation; type: in vivo, Ambrosia artemisifolia
Procedure: as §1, §2, §3

[3] = system: CASOB (Sicklepod); experiment: Postemergence herbicidal evaluation; type: in vivo, Cassia obtusifolia
Procedure: as §1, §2, §3

[4] = system: CHEAL (Lambsquarters, Common); experiment: Postemergence herbicidal evaluation; type: in vivo, Chenopodium album
Outline: (§4)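 Visual 0-9 injury score (stand, vigor, malformation, size, chlorosis, appearance vs untreated) taken four to five weeks post-spray, averaged across repeat tests. Test plants about two weeks old; foliar spray of acetone/water (1:1) with 0.5% surfactant delivering ~0.0156-0.500 kg active/ha.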

[5] = system: GALAP (Galium); experiment: Postemergence herbicidal evaluation; type: in vivo, Galium aparine
Procedure: as §1, §2, §3

[6] = system: IPOHE (Morningglory, Ivyleaf); experiment: Postemergence herbicidal evaluation; type: in vivo, Ipomoea hederacea
Procedure: as §1, §2, §3

[7] = system: ECHCG (Barnyardgrass); experiment: Postemergence herbicidal evaluation; type: in vivo, Echinochloa crus-galli
Procedure: as §1, §2, §3

[8] = system: SETVI (Foxtail, Green); experiment: Postemergence herbicidal evaluation; type: in vivo, Setaria viridis
Outline: as §4

[9] = system: GLXMAW (Soybean, Williams); experiment: Postemergence herbicidal evaluation; type: in vivo, Glycine max, (L.) Merr. cv Williams
Outline: as §4

[10] = system: ORYSAT (Rice, Tebonnet); experiment: Postemergence herbicidal evaluation; type: in vivo, Oryza sativa, (L.) Tebonnet
Outline: as §4

[11] = system: TRZAWR (Wheat, Winter, cv Riband); experiment: Postemergence herbicidal evaluation; type: in vivo, Triticum aestivum
Outline: as §4

[12] = system: ZEAMX (Corn, Field); experiment: Postemergence herbicidal evaluation; type: in vivo, Zea mays
Outline: as §4

[13] = system: ECHORC (Watergrass (Calif.)); experiment: Preemergence weed control under flooded paddy conditions; type: in vivo, Echinochloa oryzoides; conditions: rated 3-4 weeks after treatment
Procedure: as §3
(§5) Preemergence herbicidal activity under flooded paddy conditions is determined as follows: plant seeds or propagating organs are planted in the top 0.5 cm of silt loam soil in 32 oz. plastic containers with a diameter of 10.5 cm and no drainage holes. Water is added to these containers and maintained at 1.5 to 3 cm above the soil surface for the duration of the experiment. The test compounds are applied as aqueous/acetone mixtures 50/50 v/v pipetted directly into the flood water to give the equivalent of about 0.0313 to 0.500 kg/ha of active ingredient. The treated containers are placed on greenhouse benches and cared for in accordance with conventional greenhouse procedures. Three to four weeks after treatment, the test is terminated and each container is examined and herbicidal effect rated according to the rating system provided in Example 37. The compounds evaluated are reported by compound number given in Example 37.
(§6) Plant species employed in this example are reported by header abbreviation, common name and scientific name.

[14] = system: CYPIR (Rice Flatsedge); experiment: as above; type: in vivo, Cyperus iria; conditions: rated 3-4 weeks after treatment
Procedure: as §3, §5, §6

[15] = system: CYPSE (Flatsedge); experiment: as above; type: in vivo, Cyperus serotinus; conditions: rated 3-4 weeks after treatment
Procedure: as §3, §5, §6

[16] = system: MOOVA (Monochoria); experiment: as above; type: in vivo, Monochoria vaginalis; conditions: rated 3-4 weeks after treatment
Outline: (§7)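 Visual injury scored 0-9 against control three to four weeks post-treatment, greenhouse-grown. Application: acetone/water (50/50) solutions dosed directly into flood water (1.5-3 cm over silt loam, planted top 0.5 cm), roughly 0.0313 to 0.500 kg/ha active ingredient.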

[17] = system: SAGPY (Arrowhead (Pygmaea)); experiment: as above; type: in vivo, Sagittaria pygmaea; conditions: rated 3-4 weeks after treatment
Outline: as §7

[18] = system: ECHORC (Watergrass (Calif.)); experiment: Postemergence weed control under flooded paddy conditions; type: in vivo, Echinochloa oryzoides; conditions: postemergence weeds, 3-4 weeks after treatment
Text: as §3
(§8) Plastic containers containing weeds which are 3 to 5 cm tall and rice seedlings at the 1.5 to 2.5 leaf stage are flooded with water. The water is maintained at 1.5 to 3 cm above the soil surface for the duration of the experiment. Test compounds are applied as aqueous/ acetone mixtures 50/50 v/v directly into the flood water to provide the equivalent of about 0.0313 to 0.500 kg/ha of active ingredient. The treated containers are placed on greenhouse benches and cared for in accordance with conventional greenhouse procedures. Three to four weeks after treatment, the test is terminated and each container is examined and herbicidal effect rated according to the rating system provided in Example 37. The compounds evaluated are reported by compound number given in Example 37.

[19] = system: CYPIR (Rice Flatsedge); experiment: as above; type: in vivo, Cyperus iria; conditions: postemergence weeds, 3-4 weeks after treatment
Text: as §3, §8

[20] = system: CYPSE (Flatsedge); experiment: as above; type: in vivo, Cyperus serotinus; conditions: postemergence weeds, 3-4 weeks after treatment
Text: as §3, §8

[21] = system: MOOVA (Monochoria); experiment: as above; type: in vivo, Monochoria vaginalis; conditions: postemergence weeds, 3-4 weeks after treatment
Text: as §3, §8

[22] = system: SAGPY (Arrowhead (Pygmaea)); experiment: as above; type: in vivo, Sagittaria pygmaea; conditions: postemergence weeds, 3-4 weeks after treatment
Text: as §3, §8

With CCOC(=O)CN1C(=O)C(CC(=O)NC)SC1=Nc1cc(-n2c(=O)cc(C(F)(F)F)n(C)c2=O)c(F)cc1Cl (stereo not shown) [Compound 57, Ethyl 2-{{2-chloro-5-[3,6-dihydro-3-methyl-2,6-dioxo-4-(trifluoromethyl)-1(2H)-pyrimidinyl]-4-fluorophenyl}imino}-5-[(methylcarbamoyl)methyl]-4-oxo-3-thiazolidineacetate] the “Postemergence herbicidal rating ABUTH” value ([1]; Rate 0.0158 kg/ha) was 9.0, the “Postemergence herbicidal rating ABUTH” value ([1]; Rate 0.0315 kg/ha) was 9.0 and the “Postemergence herbicidal rating ABUTH” value ([1]; Rate 0.0630 kg/ha) was 9.0. The “Postemergence herbicidal rating AMBEL” value ([2]; Rate 0.0158 kg/ha) was 9.0, the “Postemergence herbicidal rating AMBEL” value ([2]; Rate 0.0315 kg/ha) was 9.0 and the “Postemergence herbicidal rating AMBEL” value ([2]; Rate 0.0630 kg/ha) was 9.0. For the same compound, the “Postemergence herbicidal rating CASOB” value ([3]; Rate 0.0158 kg/ha) was 2.0, the “Postemergence herbicidal rating CASOB” value ([3]; Rate 0.0315 kg/ha) was 2.0 and the “Postemergence herbicidal rating CASOB” value ([3]; Rate 0.0630 kg/ha) was 6.0. For the same compound, the “Postemergence herbicidal rating CHEAL” value ([4]; Rate 0.0158 kg/ha) was 9.0, the “Postemergence herbicidal rating CHEAL” value ([4]; Rate 0.0315 kg/ha) was 9.0 and the “Postemergence herbicidal rating CHEAL” value ([4]; Rate 0.0630 kg/ha) was 9.0. The “Postemergence herbicidal rating GALAP” value ([5]; Rate 0.0158 kg/ha) was 4.0, the “Postemergence herbicidal rating GALAP” value ([5]; Rate 0.0315 kg/ha) was 6.0 and the “Postemergence herbicidal rating GALAP” value ([5]; Rate 0.0630 kg/ha) was 5.0. For the same compound, the “Postemergence herbicidal rating IPOHE” value ([6]; Rate 0.0158 kg/ha) was 9.0, the “Postemergence herbicidal rating IPOHE” value ([6]; Rate 0.0315 kg/ha) was 9.0 and the “Postemergence herbicidal rating IPOHE” value ([6]; Rate 0.0630 kg/ha) was 9.0. The “Postemergence herbicidal rating ECHCG” value ([7]; Rate 0.0158 kg/ha) was 1.0, the “Postemergence herbicidal rating ECHCG” value ([7]; Rate 0.0315 kg/ha) was 1.0 and the “Postemergence herbicidal rating ECHCG” value ([7]; Rate 0.0630 kg/ha) was 1.0. The “Postemergence herbicidal rating SETVI” value ([8]; Rate 0.0158 kg/ha) was 2.0, the “Postemergence herbicidal rating SETVI” value ([8]; Rate 0.0315 kg/ha) was 4.0 and the “Postemergence herbicidal rating SETVI” value ([8]; Rate 0.0630 kg/ha) was 5.0. The “Postemergence herbicidal rating GLXMAW” value ([9]; Rate 0.0158 kg/ha) was 6.5, the “Postemergence herbicidal rating GLXMAW” value ([9]; Rate 0.0315 kg/ha) was 6.5 and the “Postemergence herbicidal rating GLXMAW” value ([9]; Rate 0.0630 kg/ha) was 9.0. For the same compound, the “Postemergence herbicidal rating ORYSAT” value ([10]; Rate 0.0158 kg/ha) was 1.5, the “Postemergence herbicidal rating ORYSAT” value ([10]; Rate 0.0315 kg/ha) was 2.5 and the “Postemergence herbicidal rating ORYSAT” value ([10]; Rate 0.0630 kg/ha) was 3.0. The “Postemergence herbicidal rating TRZAWR” value ([11]; Rate 0.0158 kg/ha) was 3.0, the “Postemergence herbicidal rating TRZAWR” value ([11]; Rate 0.0315 kg/ha) was 4.0 and the “Postemergence herbicidal rating TRZAWR” value ([11]; Rate 0.0630 kg/ha) was 4.0. For the same compound, the “Postemergence herbicidal rating ZEAMX” value ([12]; Rate 0.0158 kg/ha) was 4.5, the “Postemergence herbicidal rating ZEAMX” value ([12]; Rate 0.0315 kg/ha) was 5.0 and the “Postemergence herbicidal rating ZEAMX” value ([12]; Rate 0.0630 kg/ha) was 5.0. For the same compound, the “Herbicidal rating ECHORC” value ([13]; 0.0313 kg/ha) was 0.0, the “Herbicidal rating ECHORC” value ([13]; 0.0625 kg/ha) was 2.0 and the “Herbicidal rating ECHORC” value ([13]; 0.1250 kg/ha) was 2.0. The “Herbicidal rating ECHORC” value ([13]; 0.2500 kg/ha) was 5.0, the “Herbicidal rating CYPIR” value ([14]; 0.0313 kg/ha) was 0.0 and the “Herbicidal rating CYPIR” value ([14]; 0.0625 kg/ha) was 9.0. For the same compound, the “Herbicidal rating CYPIR” value ([14]; 0.1250 kg/ha) was 9.0, the “Herbicidal rating CYPIR” value ([14]; 0.2500 kg/ha) was 9.0 and the “Herbicidal rating CYPSE” value ([15]; 0.0313 kg/ha) was 0.0. For the same compound, the “Herbicidal rating CYPSE” value ([15]; 0.0625 kg/ha) was 0.0, the “Herbicidal rating CYPSE” value ([15]; 0.1250 kg/ha) was 0.0 and the “Herbicidal rating CYPSE” value ([15]; 0.2500 kg/ha) was 3.0. For the same compound, the “Herbicidal rating MOOVA” value ([16]; 0.0313 kg/ha) was 9.0, the “Herbicidal rating MOOVA” value ([16]; 0.0625 kg/ha) was 9.0 and the “Herbicidal rating MOOVA” value ([16]; 0.1250 kg/ha) was 9.0. The “Herbicidal rating MOOVA” value ([16]; 0.2500 kg/ha) was 9.0, the “Herbicidal rating SAGPY” value ([17]; 0.0313 kg/ha) was 0.0 and the “Herbicidal rating SAGPY” value ([17]; 0.0625 kg/ha) was 0.0. The “Herbicidal rating SAGPY” value ([17]; 0.1250 kg/ha) was 0.0, the “Herbicidal rating SAGPY” value ([17]; 0.2500 kg/ha) was 6.0 and the “Herbicidal rating ECHORC” value ([18]; rate 0.0313 kg/ha) was 0.0. For the same compound, the “Herbicidal rating ECHORC” value ([18]; rate 0.0625 kg/ha) was 2.0, the “Herbicidal rating ECHORC” value ([18]; rate 0.1250 kg/ha) was 2.0 and the “Herbicidal rating ECHORC” value ([18]; rate 0.2500 kg/ha) was 5.0. For the same compound, the “Herbicidal rating CYPIR” value ([19]; rate 0.0313 kg/ha) was 0.0, the “Herbicidal rating CYPIR” value ([19]; rate 0.0625 kg/ha) was 9.0 and the “Herbicidal rating CYPIR” value ([19]; rate 0.1250 kg/ha) was 9.0. The “Herbicidal rating CYPIR” value ([19]; rate 0.2500 kg/ha) was 9.0, the “Herbicidal rating CYPSE” value ([20]; rate 0.0313 kg/ha) was 0.0 and the “Herbicidal rating CYPSE” value ([20]; rate 0.0625 kg/ha) was 0.0. The “Herbicidal rating CYPSE” value ([20]; rate 0.1250 kg/ha) was 0.0, the “Herbicidal rating CYPSE” value ([20]; rate 0.2500 kg/ha) was 3.0 and the “Herbicidal rating MOOVA” value ([21]; rate 0.0313 kg/ha) was 9.0. The “Herbicidal rating MOOVA” value ([21]; rate 0.0625 kg/ha) was 9.0, the “Herbicidal rating MOOVA” value ([21]; rate 0.1250 kg/ha) was 9.0 and the “Herbicidal rating MOOVA” value ([21]; rate 0.2500 kg/ha) was 9.0. The “Herbicidal rating SAGPY” value ([22]; rate 0.0313 kg/ha) was 0.0, the “Herbicidal rating SAGPY” value ([22]; rate 0.0625 kg/ha) was 0.0 and the “Herbicidal rating SAGPY” value ([22]; rate 0.1250 kg/ha) was 0.0. The “Herbicidal rating SAGPY” value ([22]; rate 0.2500 kg/ha) was 6.0.
